Molecular target: T1, PI3k δ (Homo sapiens, UniProt O00329)
T1 construct: Full length p110 subunits of PI3k α, β and δ; polyHis (N); made in house; host or cells: Sf9 insect cells (baculovirus)
Assay: biochemical
Type: biochemical
Settings: not given
Procedure: Full length p110 subunits of PI3k α, β and δ, N-terminally labeled with polyHis tag, were coexpressed with p85 with Baculo virus expression vectors in sf9 insect cells. P110/p85 heterodimers were purified by sequential Ni-NTA, Q-HP, Superdex-100 chromatography. Purified α, β and δ isozymes were stored at −20° C. in 20 mM Tris, pH 8, 0.2M NaCl, 50% glycerol, 5 mM DTT, 2 mM Na cholate. […] The γ isozyme was purified by sequential Ni-NTA, Superdex-200, Q-HP chromatography. The γ isozyme was stored frozen at −80° C. in NaH2PO4, pH 8, 0.2M NaCl, 1% ethylene glycol, 2 mM β-mercaptoethanol.
Phospatidyl inositol phosphoacceptor, Ptdlns(4,5)P2 P4508, was from Echelon Biosciences. […] Test compounds were dissolved in dimethyl sulfoxide and diluted with three-fold serial dilutions. The compound in DMSO (1 μL) was added per test well, and the inhibition relative to reactions containing no compound, with and without enzyme was determined. After assay incubation at rt, the reaction was stopped and residual ATP determined by addition of an equal volume of a commercial ATP bioluminescence kit (Perkin Elmer EasyLite) according to the manufacturer's instructions, and detected using a AnalystGT luminometer.

T1 sequence (O00329 whole entry): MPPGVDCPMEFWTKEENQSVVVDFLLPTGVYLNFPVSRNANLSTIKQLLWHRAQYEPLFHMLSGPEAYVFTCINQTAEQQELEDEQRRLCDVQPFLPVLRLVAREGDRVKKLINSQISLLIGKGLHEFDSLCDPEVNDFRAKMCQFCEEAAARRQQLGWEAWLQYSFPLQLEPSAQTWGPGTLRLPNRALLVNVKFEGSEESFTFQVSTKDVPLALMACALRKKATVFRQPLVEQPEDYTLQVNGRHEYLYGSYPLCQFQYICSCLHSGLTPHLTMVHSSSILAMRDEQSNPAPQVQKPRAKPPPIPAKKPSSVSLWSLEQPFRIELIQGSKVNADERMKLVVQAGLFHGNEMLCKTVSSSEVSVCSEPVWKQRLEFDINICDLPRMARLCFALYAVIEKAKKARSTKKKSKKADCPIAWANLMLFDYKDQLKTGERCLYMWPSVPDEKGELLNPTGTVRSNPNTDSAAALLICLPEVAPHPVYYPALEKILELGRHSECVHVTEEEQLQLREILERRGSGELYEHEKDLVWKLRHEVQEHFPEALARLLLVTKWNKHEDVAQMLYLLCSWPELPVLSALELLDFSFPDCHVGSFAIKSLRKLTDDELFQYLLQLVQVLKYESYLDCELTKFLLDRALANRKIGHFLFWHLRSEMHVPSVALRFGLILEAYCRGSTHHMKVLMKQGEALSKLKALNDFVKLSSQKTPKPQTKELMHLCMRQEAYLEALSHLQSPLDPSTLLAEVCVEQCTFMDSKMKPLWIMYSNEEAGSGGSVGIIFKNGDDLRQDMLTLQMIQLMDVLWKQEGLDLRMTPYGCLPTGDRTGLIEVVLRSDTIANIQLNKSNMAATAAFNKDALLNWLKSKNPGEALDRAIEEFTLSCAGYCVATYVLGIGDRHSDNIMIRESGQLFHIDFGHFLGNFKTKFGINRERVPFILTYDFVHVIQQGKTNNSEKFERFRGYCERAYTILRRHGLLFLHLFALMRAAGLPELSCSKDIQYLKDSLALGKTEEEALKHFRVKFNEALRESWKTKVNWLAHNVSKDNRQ
T1 sequence (P27986 whole entry partner): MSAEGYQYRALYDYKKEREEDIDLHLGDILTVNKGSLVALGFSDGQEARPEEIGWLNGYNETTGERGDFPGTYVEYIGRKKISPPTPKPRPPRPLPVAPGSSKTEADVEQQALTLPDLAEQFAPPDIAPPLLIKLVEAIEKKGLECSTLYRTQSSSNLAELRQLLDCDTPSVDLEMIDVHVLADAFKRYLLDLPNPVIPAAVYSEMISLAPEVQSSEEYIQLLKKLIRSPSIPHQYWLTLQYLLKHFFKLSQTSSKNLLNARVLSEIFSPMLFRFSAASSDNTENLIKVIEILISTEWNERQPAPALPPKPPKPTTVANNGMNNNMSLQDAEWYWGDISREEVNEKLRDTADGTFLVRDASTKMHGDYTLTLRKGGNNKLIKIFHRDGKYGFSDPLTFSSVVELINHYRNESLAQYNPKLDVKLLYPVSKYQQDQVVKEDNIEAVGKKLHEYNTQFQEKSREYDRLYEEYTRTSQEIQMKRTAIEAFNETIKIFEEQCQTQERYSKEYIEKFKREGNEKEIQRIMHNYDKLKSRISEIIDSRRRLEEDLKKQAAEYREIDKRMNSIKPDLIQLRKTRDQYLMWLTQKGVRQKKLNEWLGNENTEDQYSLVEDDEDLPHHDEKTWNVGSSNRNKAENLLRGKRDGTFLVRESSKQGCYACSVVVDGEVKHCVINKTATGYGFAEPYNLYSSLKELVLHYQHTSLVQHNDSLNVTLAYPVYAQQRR

In order of rising Ki:
1. CC(Nc1ncnc(N)c1C#N)c1nc2cccc(S(C)(=O)=O)c2n1C1CC1 (centres unmarked)  3.76 nM
2. C[C@H](Nc1ncnc(N)c1C#N)c1nc2ccc(F)cc2n1-c1cncc(-c2ccccn2)c1 [4-amino-6-(((1S)-1-(1-(2,3′-bipyridin-5′-yl)-6-fluoro-1H-benzimidazol-2-yl)ethyl)amino)-5-pyrimidinecarbonitrile]  248 nM
3. C[C@@H](Nc1ncnc(N)c1C#N)c1nc2ccc(F)cc2n1-c1cncc(-c2ccccn2)c1 [4-amino-6-(((1R)-1-(1-(2,3′-bipyridin-5′-yl)-6-fluoro-1H-benzimidazol-2-yl)ethyl)amino)-5-pyrimidinecarbonitrile]  1190 nM
4. CC(Nc1ncnc(N)c1C#N)c1nc2ncccc2n1-c1ccccn1 (centres unmarked)  2900 nM

Same assay, conditions: read-out: PI3k δ Ki

In order of falling Ki:
1. CNC(=O)c1cccc(-n2c([C@@H](C)Nc3ncnc(N)c3C#N)nc3ccc(F)cc32)c1 [3-(2-((1R)-1-((6-amino-5-cyano-4-pyrimidinyl)amino)ethyl)-6-fluoro-1H-benzimidazol-1-yl)-N-methylbenzamide]  4670 nM
2. C[C@@H](Nc1ncnc(N)c1C#N)c1nc2c(F)cccc2n1-c1cc(F)cc(F)c1 [4-amino-6-(((1R)-1-(1-(3,5-difluorophenyl)-4-fluoro-1H-benzimidazol-2-yl)ethyl)amino)-5-pyrimidinecarbonitrile]  4180 nM
3. C[C@@H](Nc1ncnc(N)c1C#N)c1nc2cc(F)ccc2n1-c1cncc(F)c1 [4-amino-6-(((1R)-1-(5-fluoro-1-(5-fluoro-3-pyridinyl)-1H-benzimidazol-2-yl)ethyl)amino)-5-pyrimidinecarbonitrile]  2820 nM
4. C[C@H](Nc1ncnc(N)c1C#N)c1nc2ncccc2n1-c1ccccn1 [4-amino-6-(((1S)-1-(1-(2-pyridinyl)-1H-imidazo[4,5-b]pyridin-2-yl)ethyl)amino)-5-pyrimidinecarbonitrile]  1620 nM
5. CNC(=O)c1cccc2nc([C@@H](C)Nc3ncnc(N)c3C#N)n(-c3cncc(F)c3)c12 [2-((1R)-1-((6-amino-5-cyano-4-pyrimidinyl)amino)ethyl)-1-(5-fluoro-3-pyridinyl)-N-methyl-1H-benzimidazole-7-carboxamide]  1370 nM
6. C[C@@H](Nc1ncnc(N)c1C#N)c1nc2c(F)cc(F)cc2n1-c1cccnc1 [4-amino-6-(((1R)-1-(4,6-difluoro-1-(3-pyridinyl)-1H-benzimidazol-2-yl)ethyl)amino)-5-pyrimidinecarbonitrile]  1290 nM
7. C[C@@H](Nc1ncnc(N)c1C#N)c1nc2cccc(S(C)(=O)=O)c2n1C1CC1 [4-amino-6-(((1R)-1-(1-cyclopropyl-7-(methylsulfonyl)-1H-benzimidazol-2-yl)ethyl)amino)-5-pyrimidinecarbonitrile]  1000 nM
8. C[C@@H](Nc1ncnc(N)c1C#N)c1nc2ccc(F)cc2n1-c1cccc(F)n1 [4-amino-6-(((1R)-1-(6-fluoro-1-(6-fluoro-2-pyridinyl)-1H-benzimidazol-2-yl)ethyl)amino)-5-pyrimidinecarbonitrile]  755 nM
9. C[C@@H](Nc1ncnc(N)c1C#N)c1nc2ccc(F)cc2n1-c1cccc(C#N)c1 [4-amino-6-(((1R)-1-(1-(3-cyanophenyl)-6-fluoro-1H-benzimidazol-2-yl)ethyl)amino)-5-pyrimidinecarbonitrile]  411 nM
10. C[C@@H](Nc1ncnc(N)c1C#N)c1nc2cccc(C#N)c2n1-c1cncc(F)c1 [2-((1R)-1-((6-amino-5-cyano-4-pyrimidinyl)amino)ethyl)-1-(5-fluoro-3-pyridinyl)-1H-benzimidazole-7-carbonitrile]  325 nM
11. C[C@H](Nc1ncnc(N)c1C#N)c1nc2cccc(S(C)(=O)=O)c2n1Cc1cc(F)cc(F)c1 [4-amino-6-(((1S)-1-(1-(3,5-difluorobenzyl)-7-(methylsulfonyl)-1H-benzimidazol-2-yl)ethyl)amino)-5-pyrimidinecarbonitrile]  295 nM
12. C[C@@H](Nc1ncnc(N)c1C#N)c1nc2c(F)cc(F)cc2n1-c1cc(F)cc(F)c1 [4-amino-6-(((1R)-1-(1-(3,5-difluorophenyl)-4,6-difluoro-1H-benzimidazol-2-yl)ethyl)amino)-5-pyrimidinecarbonitrile]  251 nM
13. C[C@H](Nc1ncnc(N)c1C#N)c1nc2cccc(C#N)c2n1-c1cncc(F)c1 [2-((1S)-1-((6-amino-5-cyano-4-pyrimidinyl)amino)ethyl)-1-(5-fluoro-3-pyridinyl)-1H-benzimidazole-7-carbonitrile]  171 nM
14. C[C@@H](Nc1ncnc(N)c1C#N)c1nc2ccc(F)cc2n1-c1cccc(-c2ccccn2)c1 [4-amino-6-(((1R)-1-(6-fluoro-1-(3-(2-pyridinyl)phenyl)-1H-benzimidazol-2-yl)ethyl)amino)-5-pyrimidinecarbonitrile]  132 nM
15. CNC(=O)c1cccc2nc([C@H](C)Nc3ncnc(N)c3C#N)c(-c3cncc(F)c3)n12 [2-((1S)-1-((6-amino-5-cyano-4-pyrimidinyl)amino)ethyl)-3-(5-fluoro-3-pyridinyl)-N-methylimidazo[1,2-a]pyridine-5-carboxamide]  81.1 nM
16. C[C@H](Nc1ncnc(N)c1C#N)c1nc2cccc(C(=O)NC(C)(C)C)c2n1C1CC1 [2-((1S)-1-((6-amino-5-cyano-4-pyrimidinyl)amino)ethyl)-N-tert-butyl-1-cyclopropyl-1H-benzimidazole-7-carboxamide]  73.8 nM
17. CC[C@H](Nc1ncnc(N)c1C#N)c1nc2cccc(C(=O)NC)c2n1C1CC1 [2-((1S)-1-((6-amino-5-cyano-4-pyrimidinyl)amino)propyl)-1-cyclopropyl-N-methyl-1H-benzimidazole-7-carboxamide]  39 nM
18. CNC(=O)c1cccc2nc([C@H](C)Nc3ncnc(N)c3C(F)(F)F)n(C3CC3)c12 [2-((1S)-1-((6-amino-5-(trifluoromethyl)-4-pyrimidinyl)amino)ethyl)-1-cyclopropyl-N-methyl-1H-benzimidazole-7-carboxamide]  37 nM
19. CNC(=O)c1cccc2nc([C@H](C)Nc3ncnc(N)c3S(C)(=O)=O)n(C3CC3)c12 [2-((1S)-1-((6-amino-5-(methylsulfonyl)-4-pyrimidinyl)amino)ethyl)-1-cyclopropyl-N-methyl-1H-benzimidazole-7-carboxamide]  30 nM
20. CNC(=O)c1cccc2nc([C@H](C)Nc3ncnc(N)c3C#N)c(-c3ccccc3)n12 [2-((1S)-1-((6-amino-5-cyano-4-pyrimidinyl)amino)ethyl)-N-methyl-3-phenylimidazo[1,2-a]pyridine-5-carboxamide]  26.2 nM
21. C[C@H](Nc1ncnc(N)c1C#N)c1nc2cccc(C(=O)NC3CCCC3)c2n1C1CC1 [2-((1S)-1-((6-amino-5-cyano-4-pyrimidinyl)amino)ethyl)-N-cyclopentyl-1-cyclopropyl-1H-benzimidazole-7-carboxamide]  18.4 nM
22. CNC(=O)c1cccc(-n2c([C@H](C)Nc3ncnc(N)c3C#N)nc3ccc(F)cc32)c1 [3-(2-((1S)-1-((6-amino-5-cyano-4-pyrimidinyl)amino)ethyl)-6-fluoro-1H-benzimidazol-1-yl)-N-methylbenzamide]  18.3 nM
23. C[C@H](Nc1ncnc(N)c1C#N)c1nc2cccc(C(=O)NC3CC3)c2n1C1CC1 [2-((1S)-1-((6-amino-5-cyano-4-pyrimidinyl)amino)ethyl)-N,1-dicyclopropyl-1H-benzimidazole-7-carboxamide]  17.5 nM
24. C[C@H](Nc1ncnc(N)c1C#N)c1nc2cccc(C(=O)NC3CC3)n2c1-c1ccccc1 [2-((1S)-1-((6-amino-5-cyano-4-pyrimidinyl)amino)ethyl)-N-cyclopropyl-3-phenylimidazo[1,2-a]pyridine-5-carboxamide]  17.4 nM
25. CNC(=O)c1cccc2nc([C@H](C)Nc3ncnc4[nH]cnc34)n(C3CC3)c12 [1-cyclopropyl-N-methyl-2-((1S)-1-(9H-purin-6-ylamino)ethyl)-1H-benzimidazole-7-carboxamide]  14.6 nM
26. CNC(=O)c1cccc2nc([C@H](C)Nc3ncnc(N)c3-c3ccc(S(C)(=O)=O)cc3)n(C3CC3)c12 [2-((1S)-1-((6-amino-5-(4-(methylsulfonyl)phenyl)-4-pyrimidinyl)amino)ethyl)-1-cyclopropyl-N-methyl-1H-benzimidazole-7-carboxamide]  10.5 nM
27. CNC(=O)c1cccc2nc([C@H](C)Nc3ncnc(N)c3C#N)n(-c3cncc(F)c3)c12 [2-((1S)-1-((6-amino-5-cyano-4-pyrimidinyl)amino)ethyl)-1-(5-fluoro-3-pyridinyl)-N-methyl-1H-benzimidazole-7-carboxamide]  10.2 nM
28. CNC(=O)c1cccc2nc([C@H](C)Nc3ncnc(N)c3C#N)n(C3CC3)c12 [2-((1S)-1-((6-amino-5-cyano-4-pyrimidinyl)amino)ethyl)-1-cyclopropyl-N-methyl-1H-benzimidazole-7-carboxamide]  7.1 nM
29. C[C@@H](Nc1ncnc(N)c1C#N)c1nc2cc(F)ccc2n1-c1ccccn1 [4-amino-6-(((1R)-1-(5-fluoro-1-(2-pyridinyl)-1H-benzimidazol-2-yl)ethyl)amino)-5-pyrimidinecarbonitrile]  7 nM
30. CC(Nc1ncnc(N)c1C#N)c1sc2ccccc2c1-c1cc(F)cc(F)c1 (centres unmarked) [4-amino-6-((1-(3-(3,5-difluorophenyl)-1-benzothiophen-2-yl)ethyl)amino)-5-pyrimidinecarbonitrile]  3.33 nM
31. CC(Nc1ncnc(N)c1C#N)c1sc2ccccc2c1-c1ccccc1 (centres unmarked) [4-amino-6-((1-(3-phenyl-1-benzothiophen-2-yl)ethyl)amino)-5-pyrimidinecarbonitrile]  2.66 nM
